From patent publication US8937072B2, “Substituted cyanoaniline compounds, preparation and use thereof” (Sinochem Corporation, priority 2011, dated 2015)
Like-named read-outs stand apart in the source and are kept apart here.

Columns and labels:
corn rust = assay: Protectant activity in vivo (whole plant) against corn rust; details: for pest or weed control at 6.25 µg/mL / pest or weed control at 25 µg/mL / pest or weed control at 100 µg/mL / pest or weed control at 400 µg/mL: Zea mays, 168 h
Method in brief: (§1)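 Compound stock in organic solvent (≤5% v/v) diluted in water with 0.1% Tween-80 and sprayed onto whole host plants. Fungal inoculation 24 h later; humidity chamber then greenhouse as the pathogen requires. Activity rated visually, usually after 7 days.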

wheat powdery mildew = assay: Protectant activity in vivo (whole plant) against wheat powdery mildew; details: for pest or weed control at 400 µg/mL: Triticum aestivum, 168 h
Protocol: The method is as followed: The whole plant is used in this test. The compound is dissolved in a proper solvent to get mother solution. The proper solvent is selected from acetone, methanol, DMF and so on according to their dissolving capability to the sample. The volume rate of solvent and testing solution (v/v) is equal to or less than 5%. The mother solution is diluted with water containing 0.1% tween-80 to get the testing solution whose concentration is designed. The testing solution is sprayed to the host plant by a special plant sprayer. The plant is inoculated with fungus after 24 hours. According to the infecting characteristic of fungus, the plant is stored in a humidity chamber and then transferred into greenhouse after infection is finished. And the other plants are placed in greenhouse directly. The activity of compound is obtained by eyeballing after 7 days in common.

cucumber downy mildew = assay: Protectant activity in vivo (whole plant) against cucumber downy mildew; details: for pest or weed control at 12.5 µg/mL / pest or weed control at 25 µg/mL / pest or weed control at 50 µg/mL / pest or weed control at 100 µg/mL / pest or weed control at 400 µg/mL: Cucumis sativus, 168 h; for pest or weed control at 12.5 µg/mL: 12.5 mg/L; for pest or weed control at 100 µg/mL: 100 mg/L
Method in brief: as §1

rice blast = assay: microbe, parasite or virus in culture; assay type: cell-based; details: for inhibition at 0.03 µg/mL: read-out: the inhibition rate against rice blast (%) 0.03 mg/L; for inhibition at 0.1 µg/mL: read-out: the inhibition rate against rice blast (%) 0.1 mg/L; for the inhibition rate against rice blast (%) 0.03 mg/L: Table 21, 0.03 mg/L; for the inhibition rate against rice blast (%) 0.1 mg/L: Table 21, 0.1 mg/L; for the inhibition rate against rice blast (%) 0.3 mg/L: Table 21, 0.3 mg/L
cucumber gray mold = assay: Activity in vitro (96-well, High Through Put): inhibition rate against cucumber gray mold; assay type: cell-based; details: for inhibition at 25 µg/mL: dose 25 mg/L
Method in brief: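 Compound in acetone, methanol or DMF was combined with pathogen suspension under sterile conditions and held in a constant-temperature box. After 24 hours germination or growth was scored by eye against an untreated control to give the inhibition rate.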

[1] = 400 mg/L, read-out: the protectant activity (%) against corn rust
[2] = dose 400 mg/L, read-out: protectant activity against corn rust in vivo
[3] = 25 mg/L, read-out: the protectant activity (%) against cucumber downy mildew
[4] = 50 mg/L, read-out: the protectant activity (%) against cucumber downy mildew
[5] = read-out: the protectant activity (%) against cucumber downy mildew
[6] = Pyricularia oryzae, read-out: inhibition rate against rice blast
[7] = Pyricularia oryzae, read-out: the inhibition rate against rice blast (%) 0.3 mg/L
[8] = 0.9 mg/L, read-out: the inhibition rate against cucumber gray mold (%)
[9] = 2.8 mg/L, read-out: the inhibition rate against cucumber gray mold (%)
[10] = 8.3 mg/L, read-out: the inhibition rate against cucumber gray mold (%)
[11] = dose 25 mg/L, read-out: protectant activity against cucumber downy mildew in vivo

Compound	pest or weed control at 6.25 µg/mL (corn rust; 6.25 mg/L) [%]	pest or weed control at 25 µg/mL (corn rust; 25 mg/L) [%]	pest or weed control at 100 µg/mL (corn rust; 100 mg/L) [%]	pest or weed control at 400 µg/mL (corn rust; [1]) [%]	pest or weed control at 400 µg/mL (corn rust; [2]) [%]	pest or weed control at 400 µg/mL (wheat powdery mildew; dose 400 mg/L) [%]	pest or weed control at 12.5 µg/mL (cucumber downy mildew) [%]	pest or weed control at 25 µg/mL (cucumber downy mildew; [3]) [%]	pest or weed control at 50 µg/mL (cucumber downy mildew; [4]) [%]	pest or weed control at 100 µg/mL (cucumber downy mildew; [5]) [%]	pest or weed control at 400 µg/mL (cucumber downy mildew; dose 400 mg/L) [%]	inhibition at 0.03 µg/mL (rice blast; Pyricularia oryzae) [%]	inhibition at 0.1 µg/mL (rice blast; Pyricularia oryzae) [%]	inhibition at 0.3 µg/mL (rice blast; [7]) [%]	inhibition at 0.3 µg/mL (cucumber gray mold; 0.3 mg/L) [%]	inhibition at 0.9 µg/mL (cucumber gray mold; [8]) [%]	inhibition at 2.8 µg/mL (cucumber gray mold; [9]) [%]	inhibition at 8.3 µg/mL (cucumber gray mold; [10]) [%]	inhibition at 25 µg/mL (cucumber gray mold; in vitro) [%]	protectant activity against wheat powdery mildew in vivo (wheat powdery mildew; dose 400 mg/L) [%]	other results
N#Cc1c(Cl)c(Cl)c(C#N)c(Cl)c1Cl [STM-1]	0	0	0	0	0	0	0	0	0	0	0	0	0	0	0	0	0	0	0	–	inhibition at 25 µg/mL (rice blast; [6]): 0%
N#Cc1c(F)c(F)c(C#N)c(Nc2ccc(C(F)(F)F)cc2Cl)c1F [Compound C-82]	–	–	–	–	–	–	–	–	–	–	–	–	–	–	–	–	–	–	–	100	protectant activity against cucumber downy mildew in vivo (cucumber downy mildew; dose 400 mg/L): 100%
Cc1ccc(Nc2c(Cl)c(Cl)c(C#N)c(Cl)c2C#N)cc1 [KC3]	0	0	0	0	0	0	0	0	0	0	0	0	0	0	0	0	0	0	0	–	inhibition at 25 µg/mL (rice blast; [6]): 0%
N#Cc1c(Cl)c(Cl)c(Nc2ccc([N+](=O)[O-])cc2)c(C#N)c1Cl [KC5]	0	0	–	–	0	0	0	0	–	–	–	0	0	0	0	0	–	–	0	–	pest or weed control at 25 µg/mL (cucumber downy mildew; [11]): 0%; pest or weed control at 50 µg/mL (cucumber downy mildew; dose 50 mg/L, read-out: protectant activity against cucumber downy mildew in vivo): 20%
COc1ccc(Nc2c(Cl)c(F)c(C#N)c(F)c2C#N)cc1 [KC20]	–	–	–	–	0	0	0	0	0	0	0	–	–	–	0	0	0	0	50	–	–
N#Cc1c(Cl)c(Cl)c(Nc2cc(Cl)c(C(F)(F)F)cc2Cl)c(C#N)c1Cl [Compound B-52]	–	–	–	–	–	–	–	–	–	–	–	–	–	–	–	–	–	–	–	100	the protectant activity (%) against corn rust (corn rust; 6.25 mg/L): 70%; the protectant activity (%) against corn rust (corn rust; 25 mg/L): 98%; the protectant activity (%) against corn rust (corn rust; 100 mg/L): 100%; the protectant activity (%) against corn rust (corn rust; 400 mg/L): 100%; protectant activity against corn rust in vivo (corn rust; dose 100 mg/L): 100%; protectant activity against corn rust in vivo (corn rust; dose 400 mg/L): 100%; the inhibition rate against rice blast (%) 0.03 mg/L (rice blast): 100%; the inhibition rate against rice blast (%) 0.1 mg/L (rice blast): 100%; the inhibition rate against rice blast (%) 0.3 mg/L (rice blast): 100%; the inhibition rate against cucumber gray mold (%) (cucumber gray mold; 0.3 mg/L): 0%; the inhibition rate against cucumber gray mold (%) (cucumber gray mold; 0.9 mg/L): 100%; the inhibition rate against cucumber gray mold (%) (cucumber gray mold; 2.8 mg/L): 100%; the inhibition rate against cucumber gray mold (%) (cucumber gray mold; 8.3 mg/L): 100%
N#Cc1c(Cl)c(Cl)c(C#N)c(Nc2c(Cl)cc(C(F)(F)F)cc2Cl)c1Cl [Compound C-50]	–	–	–	–	–	–	–	–	–	–	–	–	–	–	–	–	–	–	–	100	protectant activity against corn rust in vivo (corn rust; dose 400 mg/L): 100%; the inhibition rate against rice blast (%) 0.03 mg/L (rice blast): 100%; the inhibition rate against rice blast (%) 0.1 mg/L (rice blast): 100%; the inhibition rate against rice blast (%) 0.3 mg/L (rice blast): 100%
N#Cc1c(F)c(Cl)c(Nc2ccc([N+](=O)[O-])cc2)c(C#N)c1F [KC22]	–	0	0	0	0	0	0	0	0	0	0	0	0	0	0	0	0	0	0	–	inhibition at 25 µg/mL (rice blast; [6]): 0%
Cc1cc(Nc2c(Cl)c(Cl)c(C#N)c(Cl)c2C#N)c(C)cc1Cl [KC6]	0	0	0	0	0	0	–	–	–	–	–	0	0	0	0	0	–	–	0	–	inhibition at 0.3 µg/mL (rice blast; [6]): 0%
N#Cc1c(F)c(F)c(C#N)c(Nc2ccc(Cl)c(C(F)(F)F)c2)c1F [Compound C-91]	–	–	–	–	–	–	–	–	–	–	–	–	–	–	–	–	–	–	–	100	protectant activity against wheat powdery mildew in vivo (wheat powdery mildew; dose 6.25 mg/L): 70%; protectant activity against wheat powdery mildew in vivo (wheat powdery mildew; dose 100 mg/L): 95%
N#Cc1c(Cl)c(Cl)c(Cl)c(Cl)c1C#N [STM-2]	–	–	–	70	–	0	–	–	–	–	–	–	–	50	0	0	0	0	0	–	pest or weed control at 25 µg/mL (cucumber downy mildew; [11]): 10%; inhibition at 25 µg/mL (rice blast; [6]): 50%
COc1ccc(Nc2c(Cl)c(Cl)c(C#N)c(Cl)c2C#N)cc1 [KC4]	0	0	0	0	0	0	–	–	–	–	–	0	0	0	0	0	50	100	–	–	pest or weed control at 25 µg/mL (cucumber downy mildew; [11]): 0%; inhibition at 0.9 µg/mL (rice blast; [6]): 0%; inhibition at 0.9 µg/mL (cucumber gray mold; in vitro, dose 0.9 mg/L, read-out: inhibition rate against cucumber gray mold): 0%; inhibition at 2.8 µg/mL (cucumber gray mold; in vitro, dose 2.8 mg/L, read-out: inhibition rate against cucumber gray mold): 50%
N#Cc1c(Cl)c(Cl)c(Nc2nc(Cl)c(Cl)c(Cl)c2Cl)c(C#N)c1Cl [Compound B-128b]	–	–	–	–	–	–	–	–	–	–	–	–	–	–	–	–	–	–	–	80	protectant activity against corn rust in vivo (corn rust; dose 400 mg/L): 100%; protectant activity against cucumber downy mildew in vivo (cucumber downy mildew; dose 100 mg/L): 100%; protectant activity against cucumber downy mildew in vivo (cucumber downy mildew; dose 400 mg/L): 100%; the inhibition rate against rice blast (%) 0.03 mg/L (rice blast): 80%; the inhibition rate against rice blast (%) 0.1 mg/L (rice blast): 80%; the inhibition rate against rice blast (%) 0.3 mg/L (rice blast): 100%
N#Cc1c(F)c(F)c(C#N)c(Nc2c(Cl)cc(C(F)(F)F)cc2Cl)c1F [Compound C-98]	–	–	–	–	–	–	–	–	–	–	–	–	–	–	–	–	–	–	–	100	protectant activity against corn rust in vivo (corn rust; dose 400 mg/L): 100%; protectant activity against wheat powdery mildew in vivo (wheat powdery mildew; dose 100 mg/L): 80%; inhibition rate against cucumber gray mold (cucumber gray mold; in vitro, dose 8.3 mg/L): 80%
N#Cc1c(F)c(F)c(Nc2ccccc2)c(F)c1C#N [KC13]	0	0	0	0	0	0	0	0	0	0	0	–	–	–	0	0	0	0	0	–	–
N#Cc1cc([N+](=O)[O-])cc(Br)c1Nc1c(Cl)c(Cl)c(C#N)c(C#N)c1Cl [Compound A-42]	–	–	–	–	–	–	–	–	–	–	–	–	–	–	–	–	–	–	–	98	protectant activity against wheat powdery mildew in vivo (wheat powdery mildew; dose 100 mg/L): 80%
